Experimental data taken from ChEMBL document CHEMBL1944605, “Amides of xanthurenic acid as zinc-dependent inhibitors of Lp-PLA(2)” (Bioorg Med Chem Lett, 2012).

Columns and labels:
[1] = target: T1, Platelet-activating factor acetylhydrolase (Homo sapiens, UniProt Q13093); experiment: Inhibition of human plasma lipoprotein-associated phospholipase A2 using 2-thio-PAF as substrate preincubated for 20 mins measured 1 hr post substrate addition by spectrophotometric analysis
T1 sequence (Q13093 whole entry): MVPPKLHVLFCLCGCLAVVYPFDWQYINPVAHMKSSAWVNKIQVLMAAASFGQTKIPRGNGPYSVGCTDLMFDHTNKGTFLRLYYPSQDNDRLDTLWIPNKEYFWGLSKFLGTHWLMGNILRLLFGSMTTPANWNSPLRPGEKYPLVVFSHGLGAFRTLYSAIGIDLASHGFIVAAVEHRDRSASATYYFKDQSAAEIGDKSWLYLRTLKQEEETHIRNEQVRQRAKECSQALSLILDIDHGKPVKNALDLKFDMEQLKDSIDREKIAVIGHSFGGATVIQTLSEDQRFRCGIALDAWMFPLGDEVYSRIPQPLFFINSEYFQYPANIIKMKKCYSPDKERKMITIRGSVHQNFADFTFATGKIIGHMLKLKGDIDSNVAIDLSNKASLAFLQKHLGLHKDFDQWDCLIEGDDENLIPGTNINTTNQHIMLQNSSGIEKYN

[2] = target: T1, Platelet-activating factor acetylhydrolase; experiment: Inhibition of human plasma lipoprotein-associated phospholipase A2 using 2-thio-PAF as substrate preincubated for 20 mins measured 1 hr post substrate addition by spectrophotometric analysis

## O=C(Nc1ccccc1)c1ccc2cccc(O)c2n1
[1]
  IC50: > 100 µM
[2]
  IC50: > 100 µM

## Oc1cccc2cccnc12 [OXYQUINOLINE]
[1]
  IC50: > 100 µM
[2]
  IC50: > 100 µM

## O=C(O)c1cc(O)c2cccc(O)c2n1 [XANTHURENATE]
[1]
  IC50: > 100 µM
[2]
  IC50: > 100 µM
